Test results as given in US6818414B1, “Method of pretreatment of sample for quantitating cholesterol and method for quantitating cholesterol in specific lipoproteins by using the same” (Daiichi Pure Chemicals Co., Ltd., priority 1999, dated 2004).

Test system: cholesterol oxidase
Assay: Relative absorbance of free cholesterol reaction in serum with cholesterol oxidase and fulfenamic acid (Reagents J to L)
Type: biochemical
Conditions: 600 nm, 37° C. 5 minutes, pH 6.0/7.0/8.0, 5.0 U/mL cholesterol oxidase and 0 mM fulfenamic acid = 100, average of four serum samples
Procedure: Reagents J to L shown below in Table 6 were prepared, which commonly contained 1.25 U/mL peroxidase (product of Toyobo Co., Ltd.), 0.01% 4-aminoantipyrine, 0.02% disulfo butyl-m-toluidine and 50 mM NaCl and were different from each other in the kind and pH of buffer and the concentrations of cholesterol oxidase (product of Toyobo Co., Ltd.) and fulfenamic acid (product of Sigma Chemical Co.).
Reagents J to L (300 μL) were separately added to aliquots (3 μL) of each serum sample. After the resultant mixtures were incubated at 37° C. for 5 minutes, their absorbances were measured at600 nm. The above procedures were conducted using the Hitachi 7150 automated analyzer.
With respect to each of Reagents J to L, relative absorbances were calculated for the individual concentrations of cholesterol oxidase and fulfenamic acid by assuming that the absorbance obtained with a reagent containing 5.0 U/mL cholesterol oxidase and 0 mM fulfenamic acid was 100.
Results, which had been obtained by averaging the relative absorbances of the four samples, are presented in FIG. 3. in which “COD” stands for cholesterol oxidase.

O=C(O)c1ccccc1Nc1cccc(C(F)(F)F)c1 [fulfenamic acid, flufenamic acid] was tested, and the relative absorbance was “increased depending upon the concentration of fulfenamic acid irrespective of the pH”.
